The values below come from US12351574B2, “Selective ligands for modulation of GIRK channels” (Northeastern University, priority 2018, dated 2025).

By EC50 is commonly meant the midpoint of the concentration-response curve. Read a low EC50 as an effect from little substance.

This experiment addresses T1, GIRK1/4(V-I) (Homo sapiens, UniProt P48544+P48549, V92I).
T1 construct: expressed in transfected cells; host or cells: Xenopus laevis oocytes (cRNA injection)
T1 sequence (P48549 1-501): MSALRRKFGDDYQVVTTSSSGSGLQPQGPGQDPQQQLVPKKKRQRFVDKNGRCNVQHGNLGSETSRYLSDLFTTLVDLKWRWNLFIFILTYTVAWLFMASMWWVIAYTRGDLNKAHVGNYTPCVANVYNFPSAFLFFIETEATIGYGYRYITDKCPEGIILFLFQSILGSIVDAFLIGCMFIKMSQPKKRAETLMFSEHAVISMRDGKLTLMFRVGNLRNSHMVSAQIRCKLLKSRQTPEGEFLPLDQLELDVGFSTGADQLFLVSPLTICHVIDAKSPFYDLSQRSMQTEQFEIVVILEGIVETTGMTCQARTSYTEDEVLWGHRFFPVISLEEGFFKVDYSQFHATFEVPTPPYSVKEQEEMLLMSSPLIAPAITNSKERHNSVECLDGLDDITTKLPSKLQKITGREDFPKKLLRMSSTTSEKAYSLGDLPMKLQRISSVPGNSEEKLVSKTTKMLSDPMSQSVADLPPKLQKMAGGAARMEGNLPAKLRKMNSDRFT
T1 sequence (P48544 1-419 V92I): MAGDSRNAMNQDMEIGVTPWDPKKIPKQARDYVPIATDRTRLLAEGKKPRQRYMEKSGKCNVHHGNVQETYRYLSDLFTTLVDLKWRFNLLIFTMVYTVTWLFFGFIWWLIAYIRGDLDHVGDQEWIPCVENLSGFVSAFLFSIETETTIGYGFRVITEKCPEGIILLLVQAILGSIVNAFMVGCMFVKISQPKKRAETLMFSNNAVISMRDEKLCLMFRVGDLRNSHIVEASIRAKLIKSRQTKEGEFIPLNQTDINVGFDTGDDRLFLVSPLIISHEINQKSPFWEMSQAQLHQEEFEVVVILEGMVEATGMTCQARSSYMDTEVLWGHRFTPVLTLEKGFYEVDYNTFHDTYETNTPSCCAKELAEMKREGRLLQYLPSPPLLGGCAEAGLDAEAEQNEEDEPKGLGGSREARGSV
The experiment can be described thus: TEVC in Xenopus oocytes, single mutant GIRK1/4(V-I). Particulars: GIRK1/4(V-I) single mutant. The class given is cell-based. From the text: Molecular biology: For Xenopus oocyte expression, human GIRK1 and human GIRK4 cDNAs were subcloned into pGEMHE. For mammalian expression, human GIRK1 and human GIRK4 cDNAs were subcloned into pcDNA3 and pcDNA3.1/V5-His B, respectively (Invitrogen). Mouse GIRK2 cDNA was subcloned in the dual-function vector, pXoom. Point mutations were introduced using a standard Pfu-based mutagenesis technique according to the QuikChange protocol (Agilent). Mutations were verified by sequencing.
Electrophysiology of oocytes: Whole-oocyte currents were measured by conventional two-electrode voltage clamp (TEVC) with a GeneClamp 500 amplifier (Axon Instruments). Agarose cushion microelectrodes were filled with 1.5% (w/v) agarose in 3 M KCl and were used with resistances between 0.1 and 1.5 megaohms. […] Barium-sensitive basal currents from both groups, 1) Vehicle, 2) single concentration at 10 μM and 3) multiple concentrations of ML297 or GAT compounds in the presence of HK solution, were assessed at −80 mV using TEVC. Barium-sensitive currents were normalized to average basal current in the vehicle solutions. The HK solution contained the following: 96 mM KCl, 1 mM NaCl, 1 mM MgCl2, 5 mM KOH/HEPES, pH 7.4. The barium solution consisted of HK+10 mM BaCl2. Five to ten oocytes from the same batch (same frog) were recorded for each group, and the experiments were repeated in at least four batches. Data acquisition and analysis were carried out using pClamp9 (Molecular Devices) and OriginPro (Microcal) software.
To test these computational predictions, the inventors mutated each or both of the two M1 key wild-type GIRK4 subunit residues to the corresponding GIRK2 residues (GIRK4-V92I, GIRK4-T94V, GIRK4-V92I/T94V or GIRK4-dm) and vice-versa the GIRK2 residues to the corresponding GIRK4 ones (GIRK2-I97V, GIRK2-V99T, GIRK2-I97V/V99T or GIRK2-dm) (FIG. 35). […]

Turning to `Cc1cc(NC(=O)Nc2ccc(Br)s2)n(-c2ccccc2)n1` [GAT1508, 1-(5-bromothiophen-2-yl)-3-(3-methyl-1-phenyl-1H-pyrazol-5-yl)urea], a half-maximal effect (EC50) was put at 530 ± 150 nM and the EMAX is listed as 1.29±0.03. For the setting “read-out: EMAX, % of the control GIRK1/2”, the Emax is 11%.
